Series [1] relates to HCT-116^p53−/− (p53 knockout mutant) colon carcinoma cells. Kind of series: MTT cell viability assay, HCT-116 p53-/-. Format: cell-based, human. Conditions: 72 h. As for the experimental part: (§1) Cells were seeded in 96-well microtiter plates (Sarstedt) with a cell density of 0.05 × 10^6 cells per ml and 100 µL per well and incubated for 24 h. A dilution series of test compounds was added to the wells, ranging in twelve steps from 100 µM to 5 nM. As a control, equal amounts of DMSO were added. Treated cells were further incubated for 72 h. Then, 12.5 µL per well of MTT solution (0.05% in phosphate-buffered saline (PBS)) was added, followed by another 2 h of incubation. The plates were centrifuged, the medium was discarded and 25 µL per well of SDS solution in DMSO (10% SDS, 0.6% AcOH in DMSO) was added to dissolve the formazan. The plates were incubated for a further hour. Absorbances at 570 nm and 630 nm were measured using a plate reader (Tecan). Background absorbance (630 nm) was subtracted from the formazan signal (570 nm). The resulting absorbance was directly proportional to the amount of viable cells. The control was normalized to 100% viable cells and viability of cells treated with test compounds was calculated accordingly. IC50 values were calculated based on a sigmoidal fit model using GraphPad Prism. Means and SD were calculated from at least four independent experiments.

Series [2] concerns MCF-7 mamma carcinoma cells. Kind of series: MTT cell viability assay, MCF-7. As to conditions: 72 h, read-out: IC50 MCF7. Format: cell-based, human. As for the experimental part:
as §1, with “All complexes stable in solution were investigated for their anti-proliferative effect on nine human cancer cell lines, using the MTT-based cell viability assay. Cells” for “Cells”

The subject of series [3] is EA.hy926 endothelial hybrid cells. Kind of series: MTT cell viability assay, EA.hy926. As to conditions: 72 h. Format: cell-based, human. As for the experimental part: as §1, with “All complexes stable in solution were investigated for their anti-proliferative effect on nine human cancer cell lines, using the MTT-based cell viability assay. Cells” for “Cells”
Series [4] has as its system HCT-116^wt colon carcinoma cells. The series can be described thus: MTT cell viability assay, HCT-116wt. The series is classed as cell-based, human. Conditions: 72 h. As for the experimental part: as §1
The next series concerns 518A2 melanoma cells. Kind of series: MTT cell viability assay, 518A2. The series is classed as cell-based, human. Conditions: 72 h. As for the experimental part:
as §1, with “All complexes stable in solution were investigated for their anti-proliferative effect on nine human cancer cell lines, using the MTT-based cell viability assay. Cells” for “Cells”

Another series deals with EA.hy926 cells. The series can be described thus: Tube formation assay. The series is classed as cell-based, human. Conditions: 5 µM (CA-4 0.01 µM). As for the experimental part: EA.hy926 cells were cultured overnight in endothelial medium (37 °C, 95% humidity, 5% CO2) instead of DMEM. In addition, Matrigel was thawed on ice in the refrigerator. Pipette tips and 96-well plates were stored at − 20 °C overnight. The next day, 30 µL of Matrigel was added to each well bubble-free and the well plate was incubated for approximately 45 min (37 °C, 95% humidity, 5% CO2). Subsequently, 100 µL of cell suspension was added to each well at a concentration of 0.4–0.5 × 10^6 cells/mL onto the Matrigel-treated wells and the substances were added in tenfold pre-dilution. This was followed by incubation for approximately 6 h, until tubes formed in the negative control with DMSO. At this point, documentation under the microscope took place.

Series [5] deals with human adult dermal fibroblasts HDFa. The series can be described thus: MTT cell viability assay, HDFa. The series is classed as cell-based. Conditions: 72 h, non-malignant fibroblasts. As for the experimental part:
as §1, with “All complexes stable in solution were investigated for their anti-proliferative effect on nine human cancer cell lines, using the MTT-based cell viability assay. Cells” for “Cells”

Series [6] concerns HeLa cervix carcinoma cells. The series can be described thus: MTT cell viability assay, HeLa. Format: cell-based, human. As to conditions: 72 h. As for the experimental part: as §1, with “All complexes stable in solution were investigated for their anti-proliferative effect on nine human cancer cell lines, using the MTT-based cell viability assay. Cells” for “Cells”
For series [7], the system named is HT-29 colon carcinoma cells. The series can be described thus: MTT cell viability assay, HT-29. The series is classed as cell-based, human. Conditions: 72 h. As for the experimental part: as §1, with “All complexes stable in solution were investigated for their anti-proliferative effect on nine human cancer cell lines, using the MTT-based cell viability assay. Cells” for “Cells”

Series [8] has as its system mdr KB-V1^Vbl cervix carcinoma cells. The series can be described thus: MTT cell viability assay, KB-V1 (with and without verapamil). Format: cell-based, human. Conditions: 72 h, without verapamil. As for the experimental part: as §1, with “All complexes stable in solution were investigated for their anti-proliferative effect on nine human cancer cell lines, using the MTT-based cell viability assay. Cells” for “Cells”

The next series relates to U-87 glioblastoma cells. Kind of series: MTT cell viability assay, U-87. The series is classed as cell-based, human. As to conditions: 72 h. As for the experimental part: as §1, with “All complexes stable in solution were investigated for their anti-proliferative effect on nine human cancer cell lines, using the MTT-based cell viability assay. Cells” for “Cells”
Series [9] concerns mdr MCF-7^Topo mamma carcinoma cells. Kind of series: MTT cell viability assay, MCF-7Topo. As to conditions: 72 h, read-out: IC50 MCF7^Topo. Format: cell-based, human. As for the experimental part:
as §1, with “All complexes stable in solution were investigated for their anti-proliferative effect on nine human cancer cell lines, using the MTT-based cell viability assay. Cells” for “Cells”

Series [10] in a line: Stability by NMR in DMSO-d6 + 5% D2O. The series is classed as physicochemical. As to conditions: for Stability (31P NMR): DMSO-d6 with additional D2O, three days. An excerpt:
In a further corroboration of the complex stability, the similarity of the chalcogens sulfur and selenium was exploited. The selenolato complex 10 was synthesized and examined for its stability under identical conditions. Since ^77Se is a 1/2 spin nucleus with roughly 8% natural abundance, its compounds can be investigated directly. Depending on whether a break in the Se–Au or the Au–PR3 bond would occur, the shift would change by several hundred ppm and serve as unequivocal evidence. […] In addition, we investigated the stability of complexes 1 and 5 as representatives of the series of purines and purine nucleosides, respectively, in cell culture medium by UV/Vis spectroscopy.

For series [11], the system named is caspase 3/7 in 518A2 melanoma cells. The series can be described thus: Caspase 3/7 activation. Format: cell-based, human. As to conditions: 518A2 cells, 10 µM, 6 h. As for the experimental part:
The assay was conducted, following manufacturer’s instructions using the Cell Meter Caspase 3/7 activity apoptosis assay kit (AAT Bioquest). Briefly, 518A2 melanoma cells were seeded in 96-well flat black microtiter plates with a density of 0.22 × 10^6 cells per mL and 90 µL per well. After 24 h of incubation, 10 µL per well of tenfold diluted test compounds was added, and the cells were incubated for a further 6 h. Subsequently, 100 µL per well of Caspase 3/7 substrate working solution was added and incubated for 1 h in the dark at room temperature. The fluorescence was measured using a micro-plate reader (Tecan) at ex/em = 490/525 nm.

The structures appear in SMILES notation.

Turning to `CSc1ncnc2c1ncn2[C@@H]1O[C@H](CO)[C@@H](O)[C@H]1O` [6-MMR, 6-methylmercaptopurine riboside, reference compound], the IC50 was determined as 0.05 ± 0.001 µM in [1]; 0.09 ± 0.003 µM in series [2]; 0.11 ± 0.001 µM in series [3]; 0.1 ± 0.008 µM in series [4]; 1.4 ± 0.12 µM in the series on 518A2 melanoma cells; 5.8 ± 0.46 µM in series [5]. The molecule also came in with an IC50 in [6] of 0.0056 ± 0.0003 µM. The “Inhibition of tube formation” value with EA.hy926 cells was “inhibitory effects”.

Consider `COc1ccc(/C=C\c2cc(OC)c(OC)c(OC)c2)cc1O` [CA-4, combretastatin A-4], for which, in the series with EA.hy926 cells, the “Inhibition of tube formation” value is recorded as “Complete inhibition of tube formation”.

With `c1ccc([PH]([Au][S]c2ncnc3[nH]cnc23)(c2ccccc2)c2ccccc2)cc1` [Complex 1, (1,7-Dihydro-6H-purine-6-thiolato) (triphenylphosphane) gold(I)], the IC50 in series [7] was determined as 8 ± 0.73 µM; in series [8], 1.9 ± 0.1 µM; in series [1], 1.7 ± 0.3 µM; with U-87 glioblastoma cells it was 0.91 ± 0.09 µM; in series [2] it was 13 ± 1.12 µM; in [3], 2.9 ± 0.7 µM. For the same molecule, the half-maximal inhibitory concentration (IC50) worked out at 4.9 ± 1 µM in series [4], 8 ± 0.71 µM in the series with 518A2 melanoma cells, 6.6 ± 0.65 µM in series [9] and 2.6 ± 0.04 µM in series [6].

With `Nc1nc([S][Au][PH](c2ccccc2)(c2ccccc2)c2ccccc2)c2nc[nH]c2n1` [Complex 2, (2-Amino-1,7-dihydro-6H-purine-6-thiolato) (triphenylphosphane) gold(I)], the IC50 in series [7] is 4.4 ± 0.32 µM; in series [8] it was 0.3 ± 0.07 µM; in series [1], 0.58 ± 0.01 µM; in the series with U-87 glioblastoma cells, 1 ± 0.1 µM; in [2] it was 2.2 ± 0.13 µM; in series [3], 0.5 ± 0.1 µM. In addition, the IC50 turned out to be 0.8 ± 0.01 µM in series [4], 4.4 ± 0.33 µM in the series on 518A2 melanoma cells, 3.7 ± 0.37 µM in series [9] and 0.6 ± 0.05 µM in [6].

As to `CC[PH](CC)(CC)[Au][S]c1ncnc2[nH]cnc12` [Complex 3, (1,7-Dihydro-6H-purine-6-thiolato) (triethylphosphane) gold(I)], the IC50 in series [7] turned out to be 6.4 ± 1.4 µM; in series [8], 2.5 ± 0.32 µM; in [1], 3.6 ± 0.8 µM; in the series on U-87 glioblastoma cells it was 6.9 ± 0.47 µM; in series [2], 9.4 ± 0.53 µM; in series [3], 1.5 ± 0.11 µM. Further, the IC50 worked out at 6.3 ± 0.3 µM in series [4], 8.4 ± 0.62 µM in the series with 518A2 melanoma cells, 10 ± 0.26 µM in series [9] and 6.8 ± 0.62 µM in series [6].

`CC[PH](CC)(CC)[Au][S]c1nc(N)nc2[nH]cnc12` [Complex 4, (2-Amino-1,7-dihydro-6H-purine-6-thiolato) (triethylphosphane) gold(I)]: the IC50 came to 5.8 ± 1.7 µM in series [7]; 12 ± 1 µM in series [8]; 11 ± 0.5 µM in series [1]; 7 ± 0.66 µM in the series with U-87 glioblastoma cells; 21 ± 3.4 µM in [2]; 1.1 ± 0.08 µM in series [3]. In addition, the IC50 in series [4] was found to be 25 ± 3.1 µM; in the series on 518A2 melanoma cells, 16 ± 0.91 µM; in series [9], 4.9 ± 0.43 µM; in series [6] it was 15 ± 4.1 µM. The “Stability (31P NMR)” value in series [10] is “did not change noticeably”.

Turning to `CC[PH](CC)(CC)[Au][S]c1ncnc2c1ncn2[C@@H]1O[C@H](CO)[C@@H](O)[C@H]1O` [Complex 7, (1,7-Dihydro-6H-purine-9-β-D-ribofuranosyl-6-thiolato) (triethylphosphane) gold(I)], the IC50 in [7] was 2.2 ± 0.17 µM; in series [8] it was 0.4 ± 0.04 µM; in series [1] it was 0.5 ± 0.03 µM; with U-87 glioblastoma cells, 1.1 ± 0.11 µM; in [2], 2.1 ± 0.2 µM; in series [3], 0.43 ± 0.02 µM. The IC50 came to 1.6 ± 0.2 µM in series [4]; 3 ± 0.21 µM with 518A2 melanoma cells; 7 ± 0.62 µM in series [5]; 1.2 ± 0.11 µM in series [9]; 0.51 ± 0.05 µM in series [6]. Also, the “Stability (31P NMR)” value in series [10] is on record as “did not change noticeably”. In addition, in series [11], the “Caspase 3/7 activity” value is on record as “even exceeded the effects of the three controls”.

Consider `CC[PH](CC)(CC)[Au][S]c1nc(N)nc2c1ncn2[C@@H]1O[C@H](CO)[C@@H](O)[C@H]1O` [Complex 8, (2-Amino-1,7-dihydro-6H-purine-9-β-D-ribofuranosyl-6-thiolato) (triethylphosphane) gold(I)], for which the concentration for half-maximal inhibition (IC50) turned out to be 4.5 ± 0.34 µM in series [7]; 0.7 ± 0.07 µM in [8]; 1.8 ± 0.06 µM in series [1]; 1 ± 0.03 µM with U-87 glioblastoma cells; 10 ± 0.83 µM in series [2]; 1.7 ± 0.14 µM in series [3]. Further, the IC50 in [4] turned out to be 5.5 ± 0.3 µM; in the series on 518A2 melanoma cells, 3.4 ± 0.33 µM; in series [5], 7 ± 0.7 µM; in series [9] it was 3.6 ± 0.34 µM; in series [6] it was 2.4 ± 0.21 µM.

As to `CC[PH](CC)(CC)[Au][S]c1nc([S][Au][PH](CC)(CC)CC)c2nc[nH]c2n1` [Complex 9, (1,7-Dihydro-6H-purine-2,6-bisthiolato) (triethylphosphane) gold(I)], the IC50 in [7] is 11.1 ± 0.32 µM; in [1] it was 3.7 ± 0.35 µM; in series [4], 11.2 ± 0.78 µM; in the series with 518A2 melanoma cells, 13.4 ± 1.2 µM; in [6], 17.6 ± 0.8 µM.

`CC[PH](CC)(CC)[Au][Se]c1ncnc2[nH]cnc12` [Complex 10, (1,7-Dihydro-6H-purine-6-selenolato) (triethylphosphane) gold(I)]: in series [10] (DMSO-d6 + 5% D2O, identical conditions), the “Stability (77Se NMR)” value is “no change in the shift of the ^77Se NMR signal”.
